Where two headings read alike, the source gives them in different places.
Assays:
[1] = assay type: physicochemical; details: for % assay/degs: T = 0
Experimental: For each condition, samples were staged at ambient and refrigerated conditions. Samples were analyzed for % assay/degs, appearance, reconstitution time, pH, and compared to T=0. The structures of the key impurities/metabolites are shown below.

[2] = In use testing of reconstituted solutions in IV bags and IV tubings; assay type: physicochemical
Source text: The IV bags and IV tubings were sampled over time and tested for % assay/degradation.

[3] = 30 mg (IV Bag), T = 0 (2-8° C. series)
[4] = 30 mg (IV Tube), Ambient 6 Hours
[5] = 30 mg in 100 mL 0.9% Saline (IV Bag), T = 0 (Ambient series)
[6] = 200 mg (IV Bag), T = 0 (2-8° C. series)
[7] = 200 mg in 100 mL 0.9% Saline (IV Bag), T = 0 (Ambient series)

N#C[C@@]1(c2ccc3c(N)ncnn23)O[C@H](COP(=O)(O)Oc2ccccc2)[C@@H](O)[C@H]1O [Compound F]
0.07%: % assay/degs, difference from T = 0 ([1]; pH 4.0, Ambient, 168 h)
0.34%: % assay/degs, difference from T = 0 ([1]; pH 1.8, Ambient, 8 h)
0.25%: % assay/degs, difference from T = 0 ([1]; pH 2.0, 2-8° C., 48 h)
0.08%: % assay/degs, difference from T = 0 ([1]; pH 1.8, 2-8° C., 8 h) | % assay/degs, difference from T = 0 ([1]; pH 1.8, Ambient, 2 h) | % assay/degs ([1]; pH 1.8) | % assay/degs, difference from T = 0 ([1]; pH 2.0, Ambient, 3 h) | % assay/degs, difference from T = 0 ([1]; pH 3.5, Ambient, 72 h)
2.09%: % assay/degs, difference from T = 0 ([1]; pH 1.8, Ambient, 48 h)
0.13%: % assay/degs, difference from T = 0 ([1]; pH 1.8, Ambient, 3 h) | % assay/degs, difference from T = 0 ([1]; pH 2.0, 2-8° C., 24 h)
1.05%: % assay/degs, difference from T = 0 ([1]; pH 1.8, Ambient, 24 h)
0.10%: % assay/degs, difference from T = 0 ([1]; pH 3.8, Ambient, 168 h)
0.22%: % assay/degs, difference from T = 0 ([1]; pH 2.0, Ambient, 8 h)
0.19%: % assay/degs, difference from T = 0 ([1]; pH 3.5, Ambient, 168 h)
0.39%: % assay/degs, difference from T = 0 ([1]; pH 1.8, 2-8° C., 48 h)
0.68%: % assay/degs, difference from T = 0 ([1]; pH 2.0, Ambient, 24 h)
0.01%: % assay/degs, difference from T = 0 ([1]; pH 3.5, 2-8° C., 48 h) | % assay/degs, difference from T = 0 ([1]; pH 3.5, 2-8° C., 72 h) | % assay/degs, difference from T = 0 ([1]; pH 3.5, Ambient, 8 h) | % assay/degs, difference from T = 0 ([1]; pH 3.8, 2-8° C., 96 h) | % assay/degs, difference from T = 0 ([1]; pH 3.8, 2-8° C., 168 h) | % assay/degs, difference from T = 0 ([1]; pH 3.8, Ambient, 7.2 h) | % assay/degs, difference from T = 0 ([1]; pH 4.0, 2-8° C., 96 h) | % assay/degs, difference from T = 0 ([1]; pH 4.0, 2-8° C., 168 h) | % assay/degs, difference from T = 0 ([1]; pH 4.0, Ambient, 24 h)
0.20%: % assay/degs, difference from T = 0 ([1]; pH 1.8, 2-8° C., 24 h)
1.37%: % assay/degs, difference from T = 0 ([1]; pH 2.0, Ambient, 48 h)
0.06 % w/w: % assay/degradation ([2]; 30 mg (IV Bag), 2-8° C. 48 h) | % assay/degradation ([2]; 30 mg (IV Bag), Ambient 4 h) | % assay/degradation [2, 3] | % assay/degradation [2, 4] | % assay/degradation [2, 5] | % assay/degradation ([2]; 200 mg (IV Bag), 2-8° C. 24 h) | % assay/degradation ([2]; 200 mg (IV Bag), 2-8° C. 48 h) | % assay/degradation ([2]; 200 mg (IV Bag), Ambient 4 h) | % assay/degradation ([2]; 200 mg (IV Bag), Ambient 8 h) | % assay/degradation [2, 6] | % assay/degradation ([2]; 200 mg (IV Tube), Ambient 6 h) | % assay/degradation [2, 7]
0.08 % w/w: % assay/degradation ([2]; 30 mg (IV Bag), Ambient 24 h) | % assay/degradation ([2]; 200 mg (IV Bag), Ambient 24 h)
0.02%: % assay/degs, difference from T = 0 ([1]; pH 1.8, 2-8° C., 2 h) | % assay/degs, difference from T = 0 ([1]; pH 2.0, 2-8° C., 2 h) | % assay/degs, difference from T = 0 ([1]; pH 2.0, 2-8° C., 3 h) | % assay/degs, difference from T = 0 ([1]; pH 3.5, 2-8° C., 96 h) | % assay/degs ([1]; pH 3.5) | % assay/degs, difference from T = 0 ([1]; pH 3.8, Ambient, 24 h) | % assay/degs ([1]; pH 3.8) | % assay/degs ([1]; pH 4.0)
0.05%: % assay/degs, difference from T = 0 ([1]; pH 2.0, Ambient, 2 h) | % assay/degs, difference from T = 0 ([1]; pH 3.5, Ambient, 48 h)
0.00%: % assay/degs, difference from T = 0 ([1]; pH 3.5, 2-8° C., 2 h) | % assay/degs, difference from T = 0 ([1]; pH 3.5, 2-8° C., 8 h) | % assay/degs, difference from T = 0 ([1]; pH 3.5, 2-8° C., 24 h) | % assay/degs, difference from T = 0 ([1]; pH 3.5, Ambient, 2 h) | % assay/degs, difference from T = 0 ([1]; pH 3.8, 2-8° C., 7.2 h) | % assay/degs, difference from T = 0 ([1]; pH 3.8, 2-8° C., 24 h) | % assay/degs, difference from T = 0 ([1]; pH 4.0, 2-8° C., 7.2 h) | % assay/degs, difference from T = 0 ([1]; pH 4.0, 2-8° C., 24 h) | % assay/degs, difference from T = 0 ([1]; pH 4.0, Ambient, 7.2 h)
0.06%: % assay/degs, difference from T = 0 ([1]; pH 2.0, 2-8° C., 8 h) | % assay/degs ([1]; pH 2.0) | % assay/degs, difference from T = 0 ([1]; pH 3.8, Ambient, 96 h)
0.07 % w/w: % assay/degradation ([2]; 30 mg (IV Bag), 2-8° C. 24 h) | % assay/degradation ([2]; 30 mg (IV Bag), Ambient 8 h)
0.04%: % assay/degs, difference from T = 0 ([1]; pH 1.8, Ambient, 1 h) | % assay/degs, difference from T = 0 ([1]; pH 4.0, Ambient, 96 h)
0.03%: % assay/degs, difference from T = 0 ([1]; pH 1.8, 2-8° C., 3 h) | % assay/degs, difference from T = 0 ([1]; pH 2.0, Ambient, 1 h) | % assay/degs, difference from T = 0 ([1]; pH 3.5, 2-8° C., 168 h) | % assay/degs, difference from T = 0 ([1]; pH 3.5, Ambient, 24 h)
0.11%: % assay/degs, difference from T = 0 ([1]; pH 3.5, Ambient, 96 h)

CCC(CC)COC(=O)[C@H](C)N[P@](=O)(OC[C@H]1O[C@@](C(N)=O)(c2ccc3c(N)ncnn23)[C@H](O)[C@@H]1O)Oc1ccccc1 [Compound G]
0.00%: % assay/degs, difference from T = 0 ([1]; pH 1.8, 2-8° C., 2 h) | % assay/degs, difference from T = 0 ([1]; pH 1.8, 2-8° C., 3 h) | % assay/degs, difference from T = 0 ([1]; pH 1.8, 2-8° C., 8 h) | % assay/degs, difference from T = 0 ([1]; pH 1.8, 2-8° C., 24 h) | % assay/degs, difference from T = 0 ([1]; pH 1.8, 2-8° C., 48 h) | % assay/degs, difference from T = 0 ([1]; pH 1.8, Ambient, 1 h) | % assay/degs, difference from T = 0 ([1]; pH 1.8, Ambient, 2 h) | % assay/degs, difference from T = 0 ([1]; pH 1.8, Ambient, 3 h) | % assay/degs, difference from T = 0 ([1]; pH 1.8, Ambient, 8 h) | % assay/degs, difference from T = 0 ([1]; pH 1.8, Ambient, 24 h) | % assay/degs, difference from T = 0 ([1]; pH 1.8, Ambient, 48 h) | % assay/degs, difference from T = 0 ([1]; pH 2.0, 2-8° C., 2 h) | % assay/degs, difference from T = 0 ([1]; pH 2.0, 2-8° C., 3 h) | % assay/degs, difference from T = 0 ([1]; pH 2.0, 2-8° C., 8 h) | % assay/degs, difference from T = 0 ([1]; pH 2.0, 2-8° C., 24 h) | % assay/degs, difference from T = 0 ([1]; pH 2.0, 2-8° C., 48 h) | % assay/degs, difference from T = 0 ([1]; pH 2.0, Ambient, 1 h) | % assay/degs, difference from T = 0 ([1]; pH 2.0, Ambient, 2 h) | % assay/degs, difference from T = 0 ([1]; pH 2.0, Ambient, 3 h) | % assay/degs, difference from T = 0 ([1]; pH 2.0, Ambient, 8 h) | % assay/degs, difference from T = 0 ([1]; pH 2.0, Ambient, 24 h) | % assay/degs, difference from T = 0 ([1]; pH 2.0, Ambient, 48 h) | % assay/degs, difference from T = 0 ([1]; pH 3.5, 2-8° C., 2 h) | % assay/degs, difference from T = 0 ([1]; pH 3.5, 2-8° C., 8 h) | % assay/degs, difference from T = 0 ([1]; pH 3.5, 2-8° C., 24 h) | % assay/degs, difference from T = 0 ([1]; pH 3.5, 2-8° C., 48 h) | % assay/degs, difference from T = 0 ([1]; pH 3.5, 2-8° C., 72 h) | % assay/degs, difference from T = 0 ([1]; pH 3.5, 2-8° C., 96 h) | % assay/degs, difference from T = 0 ([1]; pH 3.5, 2-8° C., 168 h) | % assay/degs, difference from T = 0 ([1]; pH 3.5, Ambient, 2 h) | % assay/degs, difference from T = 0 ([1]; pH 3.5, Ambient, 8 h) | % assay/degs, difference from T = 0 ([1]; pH 3.5, Ambient, 24 h) | % assay/degs, difference from T = 0 ([1]; pH 3.5, Ambient, 48 h) | % assay/degs, difference from T = 0 ([1]; pH 3.5, Ambient, 72 h) | % assay/degs, difference from T = 0 ([1]; pH 3.5, Ambient, 96 h) | % assay/degs, difference from T = 0 ([1]; pH 3.5, Ambient, 168 h) | % assay/degs, difference from T = 0 ([1]; pH 3.8, 2-8° C., 7.2 h) | % assay/degs, difference from T = 0 ([1]; pH 3.8, 2-8° C., 24 h) | % assay/degs, difference from T = 0 ([1]; pH 3.8, 2-8° C., 96 h) | % assay/degs, difference from T = 0 ([1]; pH 3.8, 2-8° C., 168 h) | % assay/degs, difference from T = 0 ([1]; pH 3.8, Ambient, 7.2 h) | % assay/degs, difference from T = 0 ([1]; pH 3.8, Ambient, 24 h) | % assay/degs, difference from T = 0 ([1]; pH 3.8, Ambient, 96 h) | % assay/degs, difference from T = 0 ([1]; pH 3.8, Ambient, 168 h) | % assay/degs, difference from T = 0 ([1]; pH 4.0, 2-8° C., 7.2 h) | % assay/degs, difference from T = 0 ([1]; pH 4.0, 2-8° C., 24 h) | % assay/degs, difference from T = 0 ([1]; pH 4.0, 2-8° C., 96 h) | % assay/degs, difference from T = 0 ([1]; pH 4.0, 2-8° C., 168 h) | % assay/degs, difference from T = 0 ([1]; pH 4.0, Ambient, 7.2 h) | % assay/degs, difference from T = 0 ([1]; pH 4.0, Ambient, 24 h) | % assay/degs, difference from T = 0 ([1]; pH 4.0, Ambient, 96 h) | % assay/degs, difference from T = 0 ([1]; pH 4.0, Ambient, 168 h)
0.06%: % assay/degs ([1]; pH 4.0)
0.05 % w/w: % assay/degradation ([2]; 30 mg (IV Bag), 2-8° C. 24 h) | % assay/degradation [2, 3] | % assay/degradation [2, 5] | % assay/degradation ([2]; 200 mg (IV Bag), 2-8° C. 24 h) | % assay/degradation [2, 6] | % assay/degradation ([2]; 200 mg (IV Tube), Ambient 6 h) | % assay/degradation [2, 7]
0.05%: % assay/degs ([1]; pH 1.8) | % assay/degs ([1]; pH 2.0) | % assay/degs ([1]; pH 3.5) | % assay/degs ([1]; pH 3.8)
0.06 % w/w: % assay/degradation ([2]; 30 mg (IV Bag), 2-8° C. 48 h) | % assay/degradation ([2]; 30 mg (IV Bag), Ambient 4 h) | % assay/degradation ([2]; 30 mg (IV Bag), Ambient 8 h) | % assay/degradation ([2]; 30 mg (IV Bag), Ambient 24 h) | % assay/degradation [2, 4] | % assay/degradation ([2]; 200 mg (IV Bag), 2-8° C. 48 h) | % assay/degradation ([2]; 200 mg (IV Bag), Ambient 4 h) | % assay/degradation ([2]; 200 mg (IV Bag), Ambient 8 h) | % assay/degradation ([2]; 200 mg (IV Bag), Ambient 24 h)
